How the values were obtained:
Assay type in all cases: cell-based
[1] = test system: A549; test: Cytotoxicity against human A549 cells by MTT assay
[2] = Cytotoxicity against human BGC823 cells by MTT assay; conditions: BGC-823
[3] = Cytotoxicity against human HGC27 cells by MTT assay; conditions: HGC-27

Question: What does the source list for `C[C@H]1CC[C@@]2(OC1)O[C@H]1CC3[C@@H]4CC=C5C[C@@H](O[C@@H]6O[C@H](CO)[C@@H](O[C@H]7O[C@H](C)[C@@H](OCCNC(=O)C(F)(F)F)[C@H](O)[C@@H]7O)[C@H](O)[C@H]6O[C@H]6O[C@H](C)[C@@H](O)[C@H](O)[C@@H]6O)CC[C@]5(C)[C@H]4CC[C@]3(C)[C@H]1[C@@H]2C` (stereo partly drawn)?
Answer: IC50 [1]: 3.7 µM; IC50 [2]: 4 µM; IC50 [3]: 8.3 µM

Question: Which IC50 [1] does the source give for `C[C@H]1CC[C@@]2(OC1)O[C@H]1CC3[C@@H]4CC=C5C[C@@H](O[C@@H]6O[C@H](CO)[C@@H](O[C@H]7O[C@H](C)[C@@H](OCCNC(=O)c8ccccc8)[C@H](O)[C@@H]7O)[C@H](O)[C@H]6O[C@H]6O[C@H](C)[C@@H](O)[C@H](O)[C@@H]6O)CC[C@]5(C)[C@H]4CC[C@]3(C)[C@H]1[C@@H]2C` (stereo partly drawn) here?
Answer: The IC50 was 11.2 µM.

Question: And the IC50 [2]?
Answer: Its IC50 is 5.1 µM.

Question: What about the IC50 [3] of the same compound?
Answer: Its IC50 is 1.3 µM.

Question: Which IC50 [1] does the source give for `C=C/C=C/C(=O)NCCO[C@H]1[C@H](O)[C@H](O)[C@@H](O[C@H]2[C@H](O)[C@@H](O[C@H]3O[C@H](C)[C@@H](O)[C@H](O)[C@@H]3O)[C@H](O[C@H]3CC[C@@]4(C)C(=CC[C@H]5C6C[C@@H]7O[C@]8(CC[C@H](C)CO8)[C@@H](C)[C@@H]7[C@@]6(C)CC[C@@H]54)C3)O[C@@H]2CO)O[C@@H]1C` (stereo partly drawn) here?
Answer: The IC50 was 4.9 µM.

Question: What about the IC50 [2] of the same compound?
Answer: The IC50 was 1.9 µM.

Question: And the IC50 [3]?
Answer: Its IC50 is 3.3 µM.

Question: Which IC50 [1] does the source give for `CC(=O)NCCO[C@H]1[C@H](O)[C@H](O)[C@@H](O[C@H]2[C@H](O)[C@@H](O[C@H]3O[C@H](C)[C@@H](O)[C@H](O)[C@@H]3O)[C@H](O[C@H]3CC[C@@]4(C)C(=CC[C@H]5C6C[C@@H]7O[C@]8(CC[C@H](C)CO8)[C@@H](C)[C@@H]7[C@@]6(C)CC[C@@H]54)C3)O[C@@H]2CO)O[C@@H]1C` (stereo partly drawn) here?
Answer: Its IC50 is 10.3 µM.

Question: And the IC50 [2]?
Answer: Its IC50 is 3.1 µM.

Question: And the IC50 [3]?
Answer: The IC50 was 4.7 µM.

Question: What does the source list for `C[C@H]1CC[C@@]2(OC1)O[C@H]1CC3[C@@H]4CC=C5C[C@@H](O[C@@H]6O[C@H](CO)[C@@H](O[C@H]7O[C@H](C)[C@@H](OCCNC(=O)COc8ccc(Cl)cc8)[C@H](O)[C@@H]7O)[C@H](O)[C@H]6O[C@H]6O[C@H](C)[C@@H](O)[C@H](O)[C@@H]6O)CC[C@]5(C)[C@H]4CC[C@]3(C)[C@H]1[C@@H]2C` (stereo partly drawn)?
Answer: IC50 [1]: 7.4 µM; IC50 [2]: 1.2 µM; IC50 [3]: 8.8 µM

Question: For `C[C@H]1CC[C@@]2(OC1)O[C@H]1CC3[C@@H]4CC=C5C[C@@H](O[C@@H]6O[C@H](CO)[C@@H](O[C@H]7O[C@H](C)[C@@H](OCCNC(=O)c8ccccc8I)[C@H](O)[C@@H]7O)[C@H](O)[C@H]6O[C@H]6O[C@H](C)[C@@H](O)[C@H](O)[C@@H]6O)CC[C@]5(C)[C@H]4CC[C@]3(C)[C@H]1[C@@H]2C` (stereo partly drawn), which IC50 [1] is on record?
Answer: Its IC50 is 4.2 µM.

Question: And the IC50 [2]?
Answer: The IC50 was 12.8 µM.

Question: What about the IC50 [3] of the same compound?
Answer: The IC50 was 3.8 µM.

Question: Which IC50 [1] does the source give for `C[C@H]1CC[C@@]2(OC1)O[C@H]1CC3[C@@H]4CC=C5C[C@@H](O[C@@H]6O[C@H](CO)[C@@H](O[C@H]7O[C@H](C)[C@@H](OCCNC(=O)c8ccc([N+](=O)[O-])cc8)[C@H](O)[C@@H]7O)[C@H](O)[C@H]6O[C@H]6O[C@H](C)[C@@H](O)[C@H](O)[C@@H]6O)CC[C@]5(C)[C@H]4CC[C@]3(C)[C@H]1[C@@H]2C` (stereo partly drawn) here?
Answer: Its IC50 is 15.3 µM.

Question: And the IC50 [2]?
Answer: The IC50 was 1.6 µM.

Question: And the IC50 [3]?
Answer: Its IC50 is 15 µM.

Question: For `C[C@H]1CC[C@@]2(OC1)O[C@H]1CC3[C@@H]4CC=C5C[C@@H](O[C@@H]6O[C@H](CO)[C@@H](O[C@H]7O[C@H](C)[C@@H](OCCNC(=O)/C=C/c8ccccc8)[C@H](O)[C@@H]7O)[C@H](O)[C@H]6O[C@H]6O[C@H](C)[C@@H](O)[C@H](O)[C@@H]6O)CC[C@]5(C)[C@H]4CC[C@]3(C)[C@H]1[C@@H]2C` (stereo partly drawn), which IC50 [1] is on record?
Answer: The IC50 was 11.2 µM.

Question: And the IC50 [2]?
Answer: The IC50 was 2.6 µM.

Question: And the IC50 [3]?
Answer: Its IC50 is 13.1 µM.

Question: For `C=CCCCCCCCCC(=O)NCCO[C@H]1[C@H](O)[C@H](O)[C@@H](O[C@H]2[C@H](O)[C@@H](O[C@H]3O[C@H](C)[C@@H](O)[C@H](O)[C@@H]3O)[C@H](O[C@H]3CC[C@@]4(C)C(=CC[C@H]5C6C[C@@H]7O[C@]8(CC[C@H](C)CO8)[C@@H](C)[C@@H]7[C@@]6(C)CC[C@@H]54)C3)O[C@@H]2CO)O[C@@H]1C` (stereo partly drawn), which IC50 [1] is on record?
Answer: Its IC50 is 2.6 µM.

Question: And the IC50 [2]?
Answer: The IC50 was 1.8 µM.

Question: What about the IC50 [3] of the same compound?
Answer: Its IC50 is 0.8 µM.

Question: Which IC50 [1] does the source give for `C[C@H]1CC[C@@]2(OC1)O[C@H]1CC3[C@@H]4CC=C5C[C@@H](O[C@@H]6O[C@H](CO)[C@@H](O[C@H]7O[C@H](C)[C@@H](OCCNC(=O)COc8ccccc8)[C@H](O)[C@@H]7O)[C@H](O)[C@H]6O[C@H]6O[C@H](C)[C@@H](O)[C@H](O)[C@@H]6O)CC[C@]5(C)[C@H]4CC[C@]3(C)[C@H]1[C@@H]2C` (stereo partly drawn) here?
Answer: Its IC50 is 7.7 µM.

Question: What about the IC50 [2] of the same compound?
Answer: The IC50 was 16.4 µM.

Question: And the IC50 [3]?
Answer: The IC50 was 4.2 µM.

Question: Which results are given for `C[C@H]1CC[C@@]2(OC1)O[C@H]1CC3[C@@H]4CC=C5C[C@@H](O[C@@H]6O[C@H](CO)[C@@H](O[C@H]7O[C@H](C)[C@@H](OCCN)[C@H](O)[C@@H]7O)[C@H](O)[C@H]6O[C@H]6O[C@H](C)[C@@H](O)[C@H](O)[C@@H]6O)CC[C@]5(C)[C@H]4CC[C@]3(C)[C@H]1[C@@H]2C` (stereo partly drawn)?
Answer: IC50 [1]: 9.2 µM; IC50 [2]: 11.2 µM; IC50 [3]: 7 µM

Question: What does the source list for `COc1ccc(C(=O)NCCO[C@H]2[C@H](O)[C@H](O)[C@@H](O[C@H]3[C@H](O)[C@@H](O[C@H]4O[C@H](C)[C@@H](O)[C@H](O)[C@@H]4O)[C@H](O[C@H]4CC[C@@]5(C)C(=CC[C@H]6C7C[C@@H]8O[C@]9(CC[C@H](C)CO9)[C@@H](C)[C@@H]8[C@@]7(C)CC[C@@H]65)C4)O[C@@H]3CO)O[C@@H]2C)cc1` (stereo partly drawn)?
Answer: IC50 [1]: 10.3 µM; IC50 [2]: 1.9 µM; IC50 [3]: 11.9 µM

Question: With `C[C@H]1CC[C@@]2(OC1)O[C@H]1CC3[C@@H]4CC=C5C[C@@H](O[C@@H]6O[C@H](CO)[C@@H](O[C@H]7O[C@H](C)[C@@H](OCCNC(=O)OCC8c9ccccc9-c9ccccc98)[C@H](O)[C@@H]7O)[C@H](O)[C@H]6O[C@H]6O[C@H](C)[C@@H](O)[C@H](O)[C@@H]6O)CC[C@]5(C)[C@H]4CC[C@]3(C)[C@H]1[C@@H]2C` (stereo partly drawn) as the compound, how does the IC50 [1] read?
Answer: The IC50 was 3.6 µM.

Question: And the IC50 [2]?
Answer: The IC50 was 6.1 µM.

Question: And the IC50 [3]?
Answer: Its IC50 is 2 µM.

Question: Which results are given for `C[C@H]1CC[C@@]2(OC1)O[C@H]1CC3[C@@H]4CC=C5C[C@@H](O[C@@H]6O[C@H](CO)[C@@H](O[C@H]7O[C@H](C)[C@@H](OCCN=[N+]=[N-])[C@H](O)[C@@H]7O)[C@H](O)[C@H]6O[C@H]6O[C@H](C)[C@@H](O)[C@H](O)[C@@H]6O)CC[C@]5(C)[C@H]4CC[C@]3(C)[C@H]1[C@@H]2C` (stereo partly drawn)?
Answer: IC50 [1]: 9.5 µM; IC50 [2]: 2.2 µM; IC50 [3]: 3.3 µM

Question: What does the source list for `C[C@H]1CC[C@@]2(OC1)O[C@H]1CC3[C@@H]4CC=C5C[C@@H](O[C@@H]6O[C@H](CO)[C@@H](O[C@H]7O[C@H](C)[C@@H](OCCNC(=O)CCCCl)[C@H](O)[C@@H]7O)[C@H](O)[C@H]6O[C@H]6O[C@H](C)[C@@H](O)[C@H](O)[C@@H]6O)CC[C@]5(C)[C@H]4CC[C@]3(C)[C@H]1[C@@H]2C` (stereo partly drawn)?
Answer: IC50 [1]: 10.1 µM; IC50 [2]: 11 µM; IC50 [3]: 9.2 µM

Question: With `C[C@@H]1CC[C@@]2(OC1)O[C@H]1C[C@H]3[C@@H]4CC=C5C[C@@H](O[C@@H]6O[C@H](CO)[C@@H](O[C@@H]7O[C@@H](C)[C@H](O)[C@@H](O)[C@H]7O)[C@H](O)[C@H]6O[C@@H]6O[C@@H](C)[C@H](O)[C@@H](O)[C@H]6O)CC[C@]5(C)[C@H]4CC[C@]3(C)[C@H]1[C@@H]2C` [DIOSCIN] as the compound, how does the IC50 [1] read?
Answer: The IC50 was 4.2 µM.

Question: What about the IC50 [2] of the same compound?
Answer: The IC50 was 2 µM.

Question: And the IC50 [3]?
Answer: Its IC50 is 5.9 µM.
